Peptide text beside a SMILES is read from it.
Experiments:
MAPKAP-K1 = assay: NGF-induced activation of MAPKAP-K1 in PC12 cells
MAPKAP-K1a [1] = assay: Activation of overexpressed MAPKAP-K1a in 293 cells; type: cell-based, human; details: TPA stimulation, data not shown
From the text: FIG. 7. MSK1 is mainly localised in the nucleus of cells and MAPKAP-K1a in the cytosol. […] Data is from three independent experiments. For MSK1 controls n=9, 9 and 14; for TPA n+10, 11 and 15. For MAPKAP-K1a controls total n=22; for TPA total n=9 (excluding cells with extensive clumps of immunoreactive material in the cytoplasm). Bars represent standard error of the mean calculated according to Cochran (1953). (C) Selected samples for MSK1 (C, unstimulated and D, TPA) and for MAPKAP-K1a (E, unstimulated) are shown to illustrate structures and labelling distributions. Bar is 500 nm.
MSK1 is localised in nuclei and MAPKAP-K1a in the cytoplasm. The subcellular location of wild type MSK1 that was overexpressed in 293 cells was investigated by quantitative immunoelectron microscopy (FIG. 7). MSK1 was largely located in the nucleus of unstimulated cells. The density of MSK1 in the nuclear compartment was 12 to 30-fold higher than in the cytoplasm (FIGS. 7A and 7C). […] Consistent with this observation MAPKAP-K1a, when overexpressed in cells, was largely localised in the cytoplasm (FIG. 7B). Moreover, no significant translocation of MAPKAP-K1a to the nucleus was observed following TPA stimulation of cells (FIGS. 7B and 7E) which induces 100-fold activation of this kinase (data not shown).

MSK1 [2] = assay: Activation of transfected Flag-MSK1 in 293 cells; type: cell-based, human; details: stimulation with the agonist
Description: FIG. 6. Effect of mutation of MSK1 on activation by TPA and UV in 293 cells. 293 cells were transiently transfected with DNA constructs expressing Flag epitope tagged wild type MSK1, N-terminal (NT) “kinase dead” MSK1 and C-terminal (CT) “kinase dead” MSK1. […] The cells were lysed and the MSK1 was immunoprecipitated from the lysates and assayed with Crosstide.
Transfection of MSK1 into 293 cells. 293 cells were cultured on 10 cm diameter dishes and transfected with the pCMV5 vector encoding the Flag epitope tagged MSK1 constructs using a modified calcium phosphate method (Alessi et al., 1996b). 24 h post-transfection, the cells were deprived of serum for 16 h, stimulated with TPA or exposed to UV radiation, the cells were then lysed in 1 ml of ice cold Buffer A, centrifuged at 13,000×g for 5 min, and the Flag tagged MSK1 protein immunoprecipitated from aliquots of lysate (containing 25 μg protein) using 2 μg of FLAG antibody coupled to 5 (1 of Protein G-Sepharose.
Immunoprecipitates were incubated, washed and assayed for MSK1 activity as described above.

MAPKAP-K1b = biological target: T1, MAPKAP-K1b (Oryctolagus cuniculus, UniProt A0A5F9C4L9); assay: Substrate phosphorylation kinetics with MAPKAP-K1b; type: biochemical, rabbit
T1 construct: MAPKAP-K1b was purified from rabbit skeletal muscle (Sutherland et al., 1993); from tissue; host or cells: rabbit skeletal muscle
Description: (§1) FIG. 8. […] (A) Comparison of the substrate specificities of MSK1, MAPKAP-K1a and MAPKAP-K1b towards the indicated peptides and CREB. Phosphorylation and analysis was carried out as described in Materials and Methods. The standard errors for all reported kinetic constants were within <+20% (SEM), and the data is reported as mean values for 2 independent experiments. The Vmax values are reported as a percentage of the value obtained using Crosstide ([…], peptide 1 (SEQ ID NO:16)) as a substrate. The peptide […] (SEQ ID NO:18) corresponding to residues 126–136 of CREB is termed CREBtide. The serine residues shown in bold correspond to the phosphorylated serine residues on the peptides. […] (B) GST-MSK1 (solid bars), GST-MAPKAPK-1a (open bars), MAPKAP-K-1b (speckled bars) or GST-MAPKAP-K2 (diagonal bars) were assayed with the indicated substrates. […] The phosphorylation of CREB by MAPKAP-K2 shown in the figure is corrected to show only the contribution of Ser133 phosphorylation to the total incorporation of phosphate into CREB. […]
(§2) Phosphorylation of CREB and HSP27 by MSK1 and MAPKAP-K1a/b (see FIG. 8). MSK1 and MAPKAP-K1a expressed as GST fusion proteins were purified from TPA stimulated 293 cells (FIG. 3) and MAPKAP-K1b was purified from rabbit skeletal muscle (Sutherland et al., 1993). […] The ^32P-radioactivity incorporated was then determined by Cerenkov counting. […]

MAPKAP-K1a [3] = biological target: T2, MAPKAP-K1a (Rattus norvegicus, UniProt Q63531); assay: Substrate phosphorylation kinetics with GST-MAPKAP-K1a; type: biochemical
T2 construct: made in house; host or cells: human embryonic kidney 293 cells, TPA-stimulated
Description: as §1, §2

MSK1 [4] = biological target: MSK1 (Homo sapiens, UniProt O75582); assay: Substrate phosphorylation kinetics with GST-MSK1; type: biochemical; parameters: generate a full length FLAG-MSK 1 construct in the pCMV5 mammalian expression; made in house; host or cells: human embryonic kidney 293 cells (TPA-stimulated before lysis)
Description: FIG. 8. MSK1 phosphorylates CREB at Ser133. (A) Comparison of the substrate specificities of MSK1, MAPKAP-K1a and MAPKAP-K1b towards the indicated peptides and CREB. Phosphorylation and analysis was carried out as described in Materials and Methods. The standard errors for all reported kinetic constants were within <+20% (SEM), and the data is reported as mean values for 2 independent experiments. The Vmax values are reported as a percentage of the value obtained using Crosstide ([…], peptide 1 (SEQ ID NO:16)) as a substrate. The peptide […] (SEQ ID NO:18) corresponding to residues 126–136 of CREB is termed CREBtide. The serine residues shown in bold correspond to the phosphorylated serine residues on the peptides. […] 75% of the radioactivity applied to the column was recovered from the major ^32P-containing peptide at 13% acetonitrile (the remainder of the radioactivity eluted as numerous minor peaks). […]
Phosphorylation of CREB and HSP27 by MSK1 and MAPKAP-K1a/b (see FIG. 8). MSK1 and MAPKAP-K1a expressed as GST fusion proteins were purified from TPA stimulated 293 cells (FIG. 3) and MAPKAP-K1b was purified from rabbit skeletal muscle (Sutherland et al., 1993). […] The ^32P-radioactivity incorporated was then determined by Cerenkov counting. […] The supernatant, containing 95% of the ^32P-radioactivity, was chromatographed on a Vydac C18 column as described in the legend to FIG. 8. […]

T1 sequence (A0A5F9C4L9 1-740): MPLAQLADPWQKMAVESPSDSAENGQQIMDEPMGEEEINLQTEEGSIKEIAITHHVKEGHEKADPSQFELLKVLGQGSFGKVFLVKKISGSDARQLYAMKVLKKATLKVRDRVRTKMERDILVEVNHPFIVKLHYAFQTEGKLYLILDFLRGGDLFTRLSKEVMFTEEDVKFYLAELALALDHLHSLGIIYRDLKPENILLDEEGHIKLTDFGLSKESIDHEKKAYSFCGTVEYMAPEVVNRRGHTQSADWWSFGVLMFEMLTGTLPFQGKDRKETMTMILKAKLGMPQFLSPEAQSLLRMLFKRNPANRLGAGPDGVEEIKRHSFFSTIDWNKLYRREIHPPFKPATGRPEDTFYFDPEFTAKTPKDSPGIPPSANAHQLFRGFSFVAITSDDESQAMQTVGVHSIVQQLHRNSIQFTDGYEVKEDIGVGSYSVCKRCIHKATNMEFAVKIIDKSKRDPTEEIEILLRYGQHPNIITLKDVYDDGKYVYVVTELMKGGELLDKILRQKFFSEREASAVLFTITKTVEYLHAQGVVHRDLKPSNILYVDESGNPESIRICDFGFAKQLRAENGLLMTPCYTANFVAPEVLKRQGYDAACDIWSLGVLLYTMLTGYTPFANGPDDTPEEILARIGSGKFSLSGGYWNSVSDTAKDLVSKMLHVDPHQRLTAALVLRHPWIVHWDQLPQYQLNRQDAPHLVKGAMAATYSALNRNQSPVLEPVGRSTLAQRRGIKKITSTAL
MSK1 (Homo sapiens, UniProt O75582), sequence (O75582 whole entry): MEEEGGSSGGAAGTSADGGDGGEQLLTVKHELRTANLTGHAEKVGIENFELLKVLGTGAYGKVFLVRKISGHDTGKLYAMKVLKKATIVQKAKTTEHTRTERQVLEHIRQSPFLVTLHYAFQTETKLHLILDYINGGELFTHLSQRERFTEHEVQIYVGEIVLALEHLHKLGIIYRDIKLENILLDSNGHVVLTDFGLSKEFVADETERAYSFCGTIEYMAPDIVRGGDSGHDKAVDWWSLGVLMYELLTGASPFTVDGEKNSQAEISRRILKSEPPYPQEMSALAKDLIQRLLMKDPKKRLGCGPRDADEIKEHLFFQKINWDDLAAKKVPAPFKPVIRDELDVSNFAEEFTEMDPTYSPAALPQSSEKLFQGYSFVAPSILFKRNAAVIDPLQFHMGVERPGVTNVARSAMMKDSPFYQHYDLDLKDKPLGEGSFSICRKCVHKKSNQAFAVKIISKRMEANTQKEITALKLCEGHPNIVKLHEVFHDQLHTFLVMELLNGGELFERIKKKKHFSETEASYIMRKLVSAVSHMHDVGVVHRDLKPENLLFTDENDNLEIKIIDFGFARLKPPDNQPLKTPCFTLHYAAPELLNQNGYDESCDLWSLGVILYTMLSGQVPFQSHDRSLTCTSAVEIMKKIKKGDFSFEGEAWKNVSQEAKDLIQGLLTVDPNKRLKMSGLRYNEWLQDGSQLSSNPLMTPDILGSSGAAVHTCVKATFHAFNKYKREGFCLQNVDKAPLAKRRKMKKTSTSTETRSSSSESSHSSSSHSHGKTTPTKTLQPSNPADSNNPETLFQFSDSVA
T2 sequence (Q63531 whole entry): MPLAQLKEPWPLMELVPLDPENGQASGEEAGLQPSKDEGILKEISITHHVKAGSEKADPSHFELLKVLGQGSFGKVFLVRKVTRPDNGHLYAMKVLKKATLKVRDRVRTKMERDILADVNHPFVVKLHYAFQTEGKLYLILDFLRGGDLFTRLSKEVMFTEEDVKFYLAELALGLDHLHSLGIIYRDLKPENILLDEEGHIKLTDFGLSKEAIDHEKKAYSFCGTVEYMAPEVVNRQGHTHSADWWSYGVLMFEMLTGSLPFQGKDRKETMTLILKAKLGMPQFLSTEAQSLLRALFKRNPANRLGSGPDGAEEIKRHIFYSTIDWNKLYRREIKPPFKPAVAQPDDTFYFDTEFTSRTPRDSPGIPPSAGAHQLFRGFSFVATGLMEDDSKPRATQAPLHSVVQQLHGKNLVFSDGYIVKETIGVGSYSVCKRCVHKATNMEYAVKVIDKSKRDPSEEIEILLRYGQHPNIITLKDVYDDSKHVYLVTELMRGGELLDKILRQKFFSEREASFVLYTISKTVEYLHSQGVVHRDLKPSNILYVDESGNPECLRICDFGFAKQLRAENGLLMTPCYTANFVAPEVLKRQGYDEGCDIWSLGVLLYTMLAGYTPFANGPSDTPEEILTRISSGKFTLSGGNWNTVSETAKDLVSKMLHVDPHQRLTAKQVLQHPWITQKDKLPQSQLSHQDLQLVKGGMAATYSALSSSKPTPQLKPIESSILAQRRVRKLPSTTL

NGF: nerve growth factor used as cell stimulus
activation of MAPKAP-K1 by NGF (MAPKAP-K1): five-fold

CCCCCCCCCCCCCC(=O)O[C@@H]1[C@@H](C)[C@@]2(O)[C@@H](C=C(CO)C[C@]3(O)C(=O)C(C)=C[C@@H]23)[C@@H]2C(C)(C)[C@]12OC(C)=O [TPA, 12-O-tetradecanoylphorbol 13-acetate]
activation of overexpressed MAPKAP-K1a (MAPKAP-K1a [1]): 100 fold | activation of transfected wild type MSK1 (MSK1 [2]): 200 fold

CC(C)C[C@H](NC(=O)[C@@H](NC(=O)[C@H](CCCNC(=N)N)NC(=O)[C@H](CC(N)=O)NC(=O)[C@H](CCCNC(=N)N)NC(=O)[C@H](CCCCN)NC(=O)[C@@H](N)CCCCN)[C@@H](C)O)C(=O)N[C@@H](CO)C(=O)N[C@H](C(=O)N[C@@H](C)C(=O)O)C(C)C (H-KKRNRTLSVA-OH)
Km for phosphorylation by MAPKAP-K1b (MAPKAP-K1b): almost identical Km and Vmax values as for Crosstide | Km for phosphorylation by MAPKAP-K1a (MAPKAP-K1a [3]): almost identical Km and Vmax values as for Crosstide

CC[C@H](C)[C@H](NC(=O)[C@@H](N)CCC(=O)O)C(=O)N[C@@H](CC(C)C)C(=O)N[C@@H](CO)C(=O)N[C@@H](CCCNC(=N)N)C(=O)N[C@@H](CCCNC(=N)N)C(=O)N1CCC[C@H]1C(=O)N[C@@H](CO)C(=O)N[C@@H](Cc1ccc(O)cc1)C(=O)N[C@@H](CCCNC(=N)N)C(=O)N[C@@H](CCCCN)C(=O)O [CREBtide] (H-EILSRRPSYRK-OH)
Km (MSK1 [4]): < 0.1 µM

C[C@H](NC(=O)[C@H](Cc1ccccc1)NC(=O)[C@H](CO)NC(=O)[C@H](CO)NC(=O)[C@@H](NC(=O)[C@H](CCCNC(=N)N)NC(=O)[C@@H]1CCCN1C(=O)[C@H](CCCNC(=N)N)NC(=O)CN)[C@@H](C)O)C(=O)N[C@@H](CCC(=O)O)C(=O)NCC(=O)O [Crosstide] (H-GRPRTSSFAEG-OH)
Km (MSK1 [4]): 2 to 3 µM | Km (MAPKAP-K1b): 2 to 3 µM | Km (MAPKAP-K1a [3]): 2 to 3 µM

— US7122360B1, “Polypeptides, polynucleotides and uses thereof” (University of Dundee, priority 1998, dated 2006)
